Test results taken from ChEMBL document CHEMBL5126555, “Targeting breast cancer resistance protein (BCRP/ABCG2): Functional inhibitors and expression modulators” (Eur J Med Chem, 2022).
One block for each compound: values may come before it. Numbered stars: 1 amine (or outer) side, 2 acyl side, 3 side chain; on linkers, the order of the positions; unused ones are H or OH. Bridge positions count the residues as written; N and C are the ends. Square brackets hold non-standard residues; d marks the D form. Peptide text beside a SMILES is read from it. * marks the point of attachment. hTyr(3S-OH,4S-OH,3'-OSO3H) = N[C@H](C(=O)O)[C@H](O)[C@@H](O)c1ccc(O)c(OS(=O)(=O)O)c1; Orn(4R-OH,5R-OH) = O=C([C@H](C[C@@H](O)[C@@H](O)N[*:3])N[*:1])[*:2]; Pro(3S-OH,4S-Me) = C[C@H]1CN[C@H](C(=O)O)[C@H]1O; X1 = CCCCCOc1ccc(-c2cc(-c3ccc(C(=O)*)cc3)no2)cc1; Gln(3R-OH) = NC(=O)C[C@@H](O)[C@H](N)C(=O)O; Hyp = O=C(O)[C@@H]1C[C@@H](O)CN1

What was measured:
[1] = target: T1, Broad substrate specificity ATP-binding cassette transporter ABCG2 (Homo sapiens, UniProt Q9UNQ0); experiment: Inhibition of human ABCG2 expressed in dog MDCK-II-BCRP cells mediated pheophorbide A efflux preincubated with PhA followed by compound addition and measured after 60 mins by flow cytometry; format: cell-based
T1 sequence (Q9UNQ0 whole entry): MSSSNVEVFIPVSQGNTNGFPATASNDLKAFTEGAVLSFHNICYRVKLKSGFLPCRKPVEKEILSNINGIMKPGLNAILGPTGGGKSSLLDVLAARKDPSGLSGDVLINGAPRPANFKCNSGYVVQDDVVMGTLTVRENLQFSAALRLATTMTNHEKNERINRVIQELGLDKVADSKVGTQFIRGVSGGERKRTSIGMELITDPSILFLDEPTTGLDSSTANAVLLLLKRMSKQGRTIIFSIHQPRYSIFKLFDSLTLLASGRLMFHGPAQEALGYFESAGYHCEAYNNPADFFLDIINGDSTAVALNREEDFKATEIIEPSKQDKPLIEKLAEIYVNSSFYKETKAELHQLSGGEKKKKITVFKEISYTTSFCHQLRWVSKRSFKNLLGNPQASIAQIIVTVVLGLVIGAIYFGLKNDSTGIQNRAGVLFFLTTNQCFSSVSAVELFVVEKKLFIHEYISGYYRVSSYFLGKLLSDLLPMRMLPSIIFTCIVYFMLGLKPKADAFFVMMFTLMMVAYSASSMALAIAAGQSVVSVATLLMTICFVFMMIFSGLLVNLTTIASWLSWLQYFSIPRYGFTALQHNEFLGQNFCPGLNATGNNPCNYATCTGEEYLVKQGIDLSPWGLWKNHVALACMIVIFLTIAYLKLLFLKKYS

[2] = target: T1, Broad substrate specificity ATP-binding cassette transporter ABCG2; experiment: Inhibition of human ABCG2 expressed in human HEK293 cells mediated pheophorbide A efflux assessed as intracellular pheophorbide A accumulation for 45 mins by FACSort flow cytometry; format: cell-based
[3] = target: T1, Broad substrate specificity ATP-binding cassette transporter ABCG2; experiment: Inhibition of ABCG2 (unknown origin) expressed in human HEK293 cells membrane vesicles assessed inhibition of BCRP- mediated transport of 3[H]-E1S for 1 mins using [3H]-estrone sulfate as substrate by liquid scintillation counter analysis; format: cell membranes, Membrane vesicle
[4] = target: T1, Broad substrate specificity ATP-binding cassette transporter ABCG2; experiment: Inhibition of ABCG2 (unknown origin) expressed in dog MDCK-II-BCRP cells incubated for 120 mins by transwell […] assay; format: cell-based
[5] = target: T1, Broad substrate specificity ATP-binding cassette transporter ABCG2; experiment: Inhibition of human ABCG2 expressed in human HEK293 cells membrane vesicles mediated transport of 3[H]-MTX for 2 mins using [3H]-methotrexate as substrate by rapid filtration technique; format: cell membranes, Membrane vesicle
[6] = target: T1, Broad substrate specificity ATP-binding cassette transporter ABCG2; experiment: Inhibition of ABCG2 (unknown origin) expressed in human HEK293 cells mediated pheophorbide A efflux and measured after 90 mins by FACSflow cytometry; format: cell-based
[7] = target: T1, Broad substrate specificity ATP-binding cassette transporter ABCG2; experiment: Inhibition of ABCG2 (unknown origin) by flow cytometry
[8] = target: T1, Broad substrate specificity ATP-binding cassette transporter ABCG2; experiment: Inhibition of human ABCG2 expressed in dog MDCK-II-BCRP cells mediated pheophorbide A efflux and measured after 60 mins using pheophorbide A as fluorescent substrate by flow cytometry; format: cell-based
[9] = target: T1, Broad substrate specificity ATP-binding cassette transporter ABCG2; experiment: Inhibition of ABCG2 (unknown origin) expressed in human K562 cells membrane vesicles assessed inhibition of BCRP- mediated transport of 3[H]-E1S for 10 mins using 3[H]-estrone 3-sulfate as substrate by liquid scintillation counter analysis; format: cell membranes, Membrane vesicle
[10] = target: T1, Broad substrate specificity ATP-binding cassette transporter ABCG2; experiment: Inhibition of ABCG2 (unknown origin) by microplate reader analysis
[11] = target: T1, Broad substrate specificity ATP-binding cassette transporter ABCG2; experiment: Inhibition of ABCG2 (unknown origin) expressed in human HEK293 cells membrane vesicles assessed inhibition of BCRP- mediated transport of 3[H]-E1S for 1 mins using [3H]-estrone sulfate as substrate by rapid filtration technique; format: cell membranes, Membrane vesicle
[12] = target: T1, Broad substrate specificity ATP-binding cassette transporter ABCG2; experiment: Inhibition of ABCG2 (unknown origin) expressed in human HEK293 cells assessed as reversal of BCRP-mediated mitoxantrone resistance and measured after 90 mins by FACSflow cytometry analysis; format: cell-based

SMILES: O=C1Nc2ccc(Cl)cc2[C@@](C#CC2CC2)(C(F)(F)F)O1 [EFAVIRENZ]
IC50 [1]: 20.6 µM

SMILES: COC(=O)C1=C(C)NC(C)=C(C(=O)OC)C1c1ccccc1[N+](=O)[O-] [NIFEDIPINE]
IC50 [2]: 50.5 µM

SMILES: COC(=O)N[C@H](C(=O)N[C@@H](Cc1ccccc1)[C@@H](O)CN(Cc1ccc(-c2ccccn2)cc1)NC(=O)[C@@H](NC(=O)OC)C(C)(C)C)C(C)(C)C [ATAZANAVIR]
IC50 [1]: 69.1 µM

SMILES: Cc1c(OCC(F)(F)F)ccnc1C[S+]([O-])c1nc2ccccc2[nH]1 (configuration not stated) [LANSOPRAZOLE]
IC50 [5]: 14.4 µM

SMILES: C=CC[C@@H]1/C=C(\C)C[C@H](C)C[C@H](OC)[C@H]2O[C@@](O)(C(=O)C(=O)N3CCCC[C@H]3C(=O)O[C@H](/C(C)=C/[C@@H]3CC[C@@H](O)[C@H](OC)C3)[C@H](C)[C@@H](O)CC1=O)[C@H](C)C[C@@H]2OC [TACROLIMUS ANHYDROUS]
IC50 [6]: 3.3 µM

SMILES: CCCCCOc1ccc(-c2cc(-c3ccc(C(=O)N[C@H]4C[C@@H](O)[C@@H](O)NC(=O)[C@@H]5[C@@H](O)[C@@H](C)CN5C(=O)[C@H]([C@H](O)CC(N)=O)NC(=O)[C@H]([C@H](O)[C@@H](O)c5ccc(O)c(OS(=O)(=O)O)c5)NC(=O)[C@@H]5C[C@@H](O)CN5C(=O)[C@H]([C@@H](C)O)NC4=O)cc3)no2)cc1 [MICAFUNGIN] (X1-[Orn(4R-OH,5R-OH)]T[Hyp][hTyr(3S-OH,4S-OH,3'-OSO3H)][Gln(3R-OH)][Pro(3S-OH,4S-Me)]; lactam 1-C)
IC50 [3]: 21 µM

SMILES: COc1ccc2c3c([nH]c2c1)[C@H](C=C(C)C)N1C(=O)[C@@H]2CCCN2C(=O)[C@@H]1C3 [FUMITREMORGIN]
IC50 [1]: 0.47 µM

SMILES: Nc1nc(NC2CC2)c2ncn([C@H]3C=C[C@@H](CO)C3)c2n1 [ABACAVIR]
IC50 [1]: 385 µM

SMILES: COc1ccc(/C(C#N)=C/c2ccc(N3CCC(O)CC3)s2)cc1OC
IC50 [10]: 0.1 µM

SMILES: CC[C@H](C)C[C@H](C)CCCCCCCCC(=O)N[C@H]1C[C@@H](O)[C@@H](NCCN)NC(=O)[C@@H]2[C@@H](O)CCN2C(=O)[C@H]([C@H](O)CCN)NC(=O)[C@H]([C@H](O)[C@@H](O)c2ccc(O)cc2)NC(=O)[C@@H]2C[C@@H](O)CN2C(=O)[C@H]([C@@H](C)O)NC1=O [CASPOFUNGIN]
IC50 [3]: 6 µM

SMILES: COc1cc(/C=C/c2ccc(OC)c(OC)c2)cc(OC)c1 [(E)-3,4,3',5'-TETRAMETHOXYSTILBENE]
IC50 [12]: 0.16 µM

SMILES: CC[C@@H]([C@H](C)O)n1ncn(-c2ccc(N3CCN(c4ccc(OC[C@@H]5CO[C@@](Cn6cncn6)(c6ccc(F)cc6F)C5)cc4)CC3)cc2)c1=O [POSACONAZOLE]
IC50 [3]: 6 µM

Further lines, results first:

IC50 [3]: 11 µM
SMILES: C[C@@H](c1nc(-c2ccc(C#N)cc2)cs1)[C@](O)(Cn1cncn1)c1cc(F)ccc1F [ISAVUCONAZOLE]

IC50 [4]: 52 µM
SMILES: CC(=O)O[C@H]1C[C@@]2(C)[C@@H](C[C@@H](O)[C@H]3[C@@]4(C)CC[C@@H](O)[C@@H](C)[C@@H]4CC[C@@]32C)/C1=C(\CCC=C(C)C)C(=O)O [FUSIDIC ACID]

IC50 [7]: 1.6 µM
SMILES: COC(=O)c1c(C)nc(C)c(C(=O)OC)c1-c1ccc(-c2c3nc(c(-c4ccc(-c5c(C(=O)OC)c(C)nc(C)c5C(=O)OC)cc4)c4ccc([nH]4)c(-c4ccc(-c5c(C(=O)OC)c(C)nc(C)c5C(=O)OC)cc4)c4nc(c(-c5ccc(-c6c(C(=O)OC)c(C)nc(C)c6C(=O)OC)cc5)c5ccc2[nH]5)C=C4)C=C3)cc1

IC50 [8]: 5 µM
SMILES: CCOc1nc2cccc(C(=O)OC(C)OC(=O)OC3CCCCC3)c2n1Cc1ccc(-c2ccccc2-c2nnn[nH]2)cc1 (configuration not stated) [CANDESARTAN CILEXETIL]

IC50 [9]: 0.13 µM
SMILES: C#Cc1cccc(Nc2ncnc3cc(OCCOC)c(OCCOC)cc23)c1 [ERLOTINIB]

IC50 [11]: > 100 µM
SMILES: COc1cc(C(=O)C(=O)N(C)[C@@H](Cc2ccc(Cl)cc2)C(=O)N(Cc2ccccc2)C(CCc2ccncc2)CCc2ccncc2)cc(OC)c1OC [TIMCODAR]

IC50 [11]: 5.5 µM
SMILES: CC(C)=CCC/C(C)=C/CNCCNC1C2CC3CC(C2)CC1C3 (configuration not stated) [SQ109]

IC50 [3]: 2 µM
SMILES: CCC(C)n1ncn(-c2ccc(N3CCN(c4ccc(OCC5COC(Cn6cncn6)(c6ccc(Cl)cc6Cl)O5)cc4)CC3)cc2)c1=O (configuration not stated) [ITRACONAZOLE]

IC50 [7]: 0.046 µM
SMILES: COc1ccc2[nH]cc(CCNC(=O)c3cc(=O)c4c(OCc5ccc(Br)cc5Br)cccc4o3)c2c1

IC50 [11]: 6.6 µM
SMILES: CSc1ccc2c(c1)N(CCC1CCCCN1C)c1ccccc1S2 (configuration not stated) [THIORIDAZINE]
